# Values quoted from earlier work, collected in patent US20080070828A1, “Ace-Inhibitory Whey Hydrolysates” (FRIESLAND BRANDS B.V., priority 2004, published 2008).
# Experiments:
# [1] = tested on: ACE; conditions: for Literature IC50 / IC50: ACE-inhibitory peptides from BLG; for IC50: read-out: Literature IC50
# [2] = tested on: hypertensive rats; conditions: among 9 identified peptide sequences
Literature IC50 [1],IC50 [1],"IC50 reported in WO 01/85984 ([1]; single hydrolysis step with trypsin or bacterial protease, f142-148 as reference)",Substance,antihypertensive activity [2]
42 µg/mL,141 µM,–,"Ile-Pro-Ala [f(78-80), BLG tripeptide]",strongest antihypertensive activity
390 µg/mL,580 µM,–,"f(9-14): ACE-inhibitory peptide from BLG (GLDIQK; UniProt P02754 25-30, looked up, fragment)",–
1170 µg/mL,1680 µM,–,"f(15-20): ACE-inhibitory peptide from BLG (VAGTWY; UniProt P02754 31-36, looked up, fragment)",–
430 µg/mL,1060 µM,–,"f(22-25): ACE-inhibitory peptide from BLG (LAMA; UniProt P02754 38-41, looked up, fragment)",–
616 µg/mL,635 µM,–,"f(32-40): ACE-inhibitory peptide from BLG (LDAQSAPLR; UniProt P02754 48-56, looked up, fragment)",–
404 µg/mL,1030 µM,–,"f(81-83): ACE-inhibitory peptide from BLG (VFK; UniProt P02754 97-99, looked up, fragment)",–
807 µg/mL,946 µM,–,"f(94-100): ACE-inhibitory peptide from BLG (VLDTDYK; UniProt P02754 110-116, looked up, fragment)",–
95 µg/mL,172 µM,–,"f(102-105): ACE-inhibitory peptide from BLG (YLLF; UniProt P02754 118-121, looked up, fragment)",–
515 µg/mL,788 µM,–,"f(106-111): ACE-inhibitory peptide from BLG (CMENSA; UniProt P02754 122-127, looked up, fragment)",–
296 µg/mL,521 µM,–,"f(142-146): ACE-inhibitory peptide from BLG (ALPMH; UniProt P02754 158-162, looked up, fragment)",–
–,43 µM,40 µg/mL,"f(142-148): peptide isolated from a trypsin hydrolysate of bovine BLG (ALPMHIR; UniProt P02754 158-164, looked up, fragment)",–
620 µg/mL,1150 µM,–,"f(146-149): ACE-inhibitory peptide from BLG (HIRL; UniProt P02754 162-165, looked up, fragment)",–
